Data from patent publication US20210290581A1, “NEUROREGENERATION IMPROVED BY KETONE” (UNIVERSITY OF SOUTH FLORIDA, priority 2016, published 2021).

What was measured:
rat primary neurons [1] = assay: scratch assay in primary neuronal cell cultures followed for 24 hours with CytoSmart system; type: cell-based, Sprague Dawley rats; settings: 2 mM
Method: Ketone bodies serve as alternative fuel for the brain when glucose availability is limited. In humans, BHB is synthesized in the liver from acetoacetate, the first ketone produced in the fasting state. Its biosynthesis is catalyzed by the enzyme beta-hydroxybutyrate dehydrogenase. The effect of ketone bodies on cell regeneration in primary neuronal cell cultures was tested by using a scratch assay that was followed for 24 hours with a CYTOSMART system.
(§1) Cortical neurons from embryonic (E18) Sprague Dawley rats were isolated and cultured as described in Katnic, Guerrero et al. 2006. Briefly, excised brains were digested with 0.25% trypsin. Isolated cells were suspended in DMEM supplemented with fetal bovine serum (FBS, 10%, heat inactivated), penicillin (100 IU/ml), streptomycin ([…]) and amphotericin B1 ([…]) (Antibiotic/Antimycotic) and plated on poly-L-lysine coated coverslips. Following 24 hour incubation, the DMEM solution was replaced with Neurobasal media supplemented with B-27 (10 ml) and 0.5 mM L-glutamine. 3 week old rat primary neurons were exposed to 2 mM R,S-Sodium-3-hydroxibutyrate. The cell monolayer was scraped with a P100 pipette tip to create a scratch. Cell debris was removed by washing with culture medium. 100 snapshots were taken of the cell migration/cell regeneration into the scratch space over 24 hours by CytoSmart system.

rat primary neurons [2] = assay: immunofluorescence staining of the scratch assay (cell nuclei, Beta tubulin, synapsins); type: cell-based, Sprague Dawley rats; settings: 2 mM; after 24 hours; 10×, 20×, 60×; compared to control
Method: as §1
The primary neurons underwent immunofluorescence staining. This fluorescence imaging on the scratch assay (after 24 hours/3-week old primary neurons) can be seen in FIGS. 6A-6B, 7A-7B, 8A-8B, and 9A-9B. The images have been lightened for illustrative purposes. Each of these figures includes four (4) images, labeled as I-IV. […]

CC(O)CC(=O)[O-].[Na+] (centres unmarked) [R,S-Sodium-3-hydroxibutyrate]
DAPI stained cell nuclei in the scratch space area (rat primary neurons [1]; 24 hours, 20× (p=0.01) and 10× (p=0.0004) magnification, versus control): significantly more DAPI stained cell nuclei
increase in cell coverage per 24 hours (rat primary neurons [1]; 24 hours, control about 0.9%): about 3.3%
cell migration and regeneration of the damaged area (rat primary neurons [1]; over the 24-hour period, versus control): more intense cell migration and regeneration of the damaged area
cell nuclei visible around the regeneration site and in the scratch area (rat primary neurons [2]): More cell nuclei are visible around the regeneration site
density of synapsins and tubulin at the regeneration site (rat primary neurons [2]): higher density of synapsins and tubulin
